For the assay, the target named is Recombinant human ATX (Homo sapiens (Human), UniProt Q13822). Nature of the assay: Assessing ATX inhibition (choline release, Amplex Red fluorescence). Format: biochemical. To be noted: ATX 10 nM, LPC 18:1 10 μM, pre-incubated at 37° C. for 20 minutes; mean of n≥2. Here is the method:
Reagents—LPC (oleoyl (18:1)) was purchased from Avanti Polar Lipids (Alabaster, Ala.) and solubilized in methanol to 20 mM. Amplex Red was obtained from Invitrogen Life Technologies (Paisley, UK) and dissolved in DMSO to 10 mM. Choline oxidase and horseradish peroxidase (HRP) were obtained from Sigma Aldrich (Dorset, UK) and dissolved in HBSS to 20 U/ml and 200 U/ml respectively. All reagents were stored at −20° C. in single use aliquots. All experimental measurements were performed in assay buffer made up immediately prior to use (HBSS, 0.01% BSA essentially fatty acid free).
Protein—Recombinant human ATX was prepared at Novartis (Basel, CH) in a human embryonic kidney (HEK) cell preparation, and stored in single use aliquots of […] (26 μM) stocks stored at −80° C.
Method—All experimental measurements should be performed in black 384 well polystyrene (low volume, round bottom, Corning (3676)) plates. PerkinElmer EnVision (Fluorescence Intensity/Absorbance Monochromator) or Tecan Infinite 200 PRO series plate reader was used to detect change in fluorescent intensity.
Assessing ATX inhibition—ATX activity was determined by measurement of released choline in reactions containing ATX (10 nM), choline oxidase (0.1 U/ml), HRP (100 U/ml), amplex red (50 μM) and LPC 18:1 (10 μM). Compounds of the invention should be prepared as 10 point serial dilutions from 1 μM in duplicate and pre-incubated with ATX at 37° C. for 20 minutes prior to the addition of remaining reagents. The liberated choline was measured from changes in fluorescence intensity (λex 530 nm, λm 590 nm) of the product resurofin at 37° C. every 2 minutes over a 40-minute period. ATX activity was measured as a slope of the linear portion of the progress curve, typically between 14 to 24 minutes.
Data analysis—Slope data was exported to Graphpad prism (Graphpad software, San Diego, Calif.) where data was fitted to equation 1. Y=Bottom+(Top−Bottom)/(1+10^((Log IC50−X)*HillSlope)) Equation 1
IC50 values were determined from the concentration of compound that reduced the total activity by 50% and represent the mean of n≥2.

As to `Cc1nnn(Cc2cc(C(F)(F)F)ccc2/C=C/C(=O)N2CCN(Cc3ccc(OCCF)cn3)C[C@H]2C)n1`, the IC50 – broadly, the concentration needed to halve the response being measured – is 3 nM. Turning to `Cc1nnn(Cc2cc(Cl)ccc2/C=C/C(=O)N2CCN(Cc3ccc(OCCOCCF)cn3)C[C@H]2C)n1`, the IC50 was 5 nM. `Cc1nnn(Cc2cc(Cl)ccc2/C=C/C(=O)N2CCN(Cc3ccc(OCCF)cn3)C[C@H]2C)n1`: the IC50 was 4 nM. For `Cc1nnn(Cc2cc(C(F)(F)F)ccc2CCC(=O)N2CCN(Cc3ccc(OCCF)cn3)C[C@H]2C)n1`, the concentration for half-maximal inhibition (IC50) was determined as 2 nM. Consider `Cc1nnn(Cc2cc(C(F)(F)F)ccc2/C=C/C(=O)N2CCN(Cc3ccc(OCCOCCF)cn3)C[C@H]2C)n1`, for which the IC50 came out at 6 nM. As to `Cc1nnn(Cc2cc(C(F)(F)F)ccc2/C=C/C(=O)N2CCN(Cc3coc(CF)n3)C[C@H]2C)n1`, the 50% inhibitory concentration (IC50) was 1.4 nM. For `COc1cc(CN2CCN(C(=O)/C=C/c3ccc(Cl)cc3Cn3nnc(C)n3)CC2)ccn1`, the IC50 came out at 13 nM.

Values taken from US10450298B2, “PET Imaging agents” (Novartis AG, priority 2015, dated 2019).
